From publication PMC11601558, “SLC6A19 inhibition facilitates urinary neutral amino acid excretion and lowers plasma phenylalanine” (JCI Insight, 2024)
Several values for one entry are separate records, joined by “and”; a condition that tells them apart may be missing. Identical values can stand only once. Like-named read-outs stand apart in the source and are kept apart here.

Target: T1, mouse SLC6A19 (Mus musculus, UniProt Q9D687)
T1 construct: expressed in transfected cells
T1 sequence (Q9D687 1-634): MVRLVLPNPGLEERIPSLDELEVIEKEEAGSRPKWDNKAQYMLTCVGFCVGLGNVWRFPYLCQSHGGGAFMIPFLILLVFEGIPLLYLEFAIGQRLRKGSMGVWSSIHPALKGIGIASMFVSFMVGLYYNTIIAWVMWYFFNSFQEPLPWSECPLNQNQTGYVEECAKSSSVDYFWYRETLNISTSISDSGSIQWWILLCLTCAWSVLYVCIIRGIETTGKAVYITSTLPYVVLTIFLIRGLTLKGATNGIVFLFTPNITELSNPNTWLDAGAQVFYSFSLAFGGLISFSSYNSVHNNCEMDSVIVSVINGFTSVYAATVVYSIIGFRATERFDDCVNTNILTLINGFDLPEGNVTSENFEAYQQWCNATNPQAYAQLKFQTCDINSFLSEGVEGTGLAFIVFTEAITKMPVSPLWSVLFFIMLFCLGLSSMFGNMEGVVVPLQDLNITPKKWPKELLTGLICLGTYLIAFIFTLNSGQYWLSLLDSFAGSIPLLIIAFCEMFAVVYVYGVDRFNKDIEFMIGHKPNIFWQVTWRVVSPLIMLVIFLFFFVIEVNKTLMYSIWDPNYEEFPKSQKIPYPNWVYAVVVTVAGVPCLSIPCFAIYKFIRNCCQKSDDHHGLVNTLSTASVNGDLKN
T1 sequence (Q9ESG4 15-222 partner): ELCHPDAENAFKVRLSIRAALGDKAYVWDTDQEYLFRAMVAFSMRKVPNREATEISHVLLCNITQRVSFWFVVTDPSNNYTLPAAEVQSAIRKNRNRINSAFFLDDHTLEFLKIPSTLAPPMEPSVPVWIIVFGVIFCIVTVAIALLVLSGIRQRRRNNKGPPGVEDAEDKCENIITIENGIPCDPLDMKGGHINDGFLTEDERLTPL
Assay: Isoleucine transport assay, Flp-In T-REx 293 cells coexpressing mouse SLC6A19 and TMEM27
Format: cell-based
Settings: for isoleucine transport, Mouse (Fig 1f curve point) / isoleucine transport, Mouse (Fig 1c curve point): technical replicates; for IC50: read-out: IC50 against mouse SLC6A19, isoleucine transport assay
Procedure: Flp-In T-REx 293 cells (Thermo Fisher Scientific) were engineered to coexpress C-terminally V5-tagged human or mouse SLC6A19 under the control of a tetracycline-inducible promoter and human or mouse myc-DDK-tagged TMEM27 under the control of a constitutively active promoter. Cells were maintained in DMEM/F12 medium supplemented with 10% FBS, 100 units/mL penicillin, 100 μg/mL streptomycin, 200 μg/mL hygromycin, 10 μg/mL blasticidin, and 300 μg/mL geneticin (all from Thermo Fisher Scientific) at 37°C and 5% CO2.
Flp-In T-REx 293 cells stably coexpressing human or mouse SLC6A19 and TMEM27 were plated in 384-well plates in the presence of 1 μg/mL tetracyclin (Sigma-Aldrich) to induce the expression of SLC6A19. After 24 hours, cells were washed with live cell imaging solution (LCIS, Thermo Fisher Scientific) before JN-170 or JNT-517 were added to cells in 10-point concentration response curves in 0.5% DMSO in Krebs buffer (140 mM NaCl, 4.7 mM KCl, 2.5 mM CaCl2, 1.2 mM MgCl2, 11 mM HEPES, 10 mM glucose, pH 7.4). Cells were incubated with compounds for 1 hour at room temperature before 1 mM ^13C6,^15N1-labeled L-isoleucine (Cambridge Isotope Laboratories) was added as a transport substrate. After 20 minutes incubation at room temperature, cells were washed and lysed in H2O with 15 μM internal standard D-Leucine-D10 (CDN Isotopes) for 1–2 hours. A standard curve of ^13C6,^15N1-L-isoleucine was added to each plate following cell lysis. Plates were centrifuged at 3,700g to remove cell debris, and supernatant was diluted in 2 steps to a final 1:10 dilution in acetonitrile/0.1% formic acid. Sample desalting was performed on a high throughput RapidFire-365 (Agilent) using a hydrophilic interaction liquid chromatography (HILIC) column. A quantitative time-of-flight (Q-ToF) mass spectrometer (Agilent) was used to detect analytes. Agilent MassHunter quantitative analysis for time of flight was used as the integration software for measuring area under the peak for both ^13C6,^15N1-L-isoleucine and D-Leucine-D10 internal standard.
IC50 values for transport inhibition in cells overexpressing SLC6A19 and TMEM27 were calculated using a 4-parameter logistic regression in Collaborative Drug Discovery (CDD). Reported IC50 values are geometric means of 4–6 independent experiments. For postmortem intestinal transport assays, single outliers of quadruplicate replicates were excluded from the calculation if a signal value’s distance to the mean exceeded 35% of the signal average. The IC50 values of individual experiments were calculated with a 3- or 4-parameter logistic regression using GraphPad Prism 9. The reported IC50 value represents the geometric mean of n = 5 experiments from 3 individual donors. Statistical comparison of urinary Phe excretion in Pah^enu2 mice treated with vehicle or JN-170 was conducted using 1-way analysis of variance (ANOVA) with Tukey’s post hoc comparison. Statistical analysis of baseline-adjusted plasma Phe in mice treated with vehicle or JN-170 was determined by 2-way ANOVA with Dunnett’s post hoc comparison. All statistical analyses were performed using GraphPad Prism 9. For clinical studies, group sizes were not determined based on statistical power calculations. Statistical significance of pharmacodynamic results was not assessed. Values are reported as mean (urinary Phe excretion, T1/2, Cl/F), geometric mean (Cmax/D, AUC0-inf/D), or median (Tmax).

N#Cc1ccc(-c2noc([C@]3(C(F)(F)F)CCN(C(=O)NCCC4(N)CC4)C3)n2)cc1 [JN-170]
isoleucine transport, Mouse (Fig 1f curve point) (0.000722 uM): 84.1 and 94.9
isoleucine transport, Mouse (Fig 1f curve point) (0.00219 uM): 91.4 and 88.7
isoleucine transport, Mouse (Fig 1f curve point) (0.00438 uM): 84.6 and 91.9
isoleucine transport, Mouse (Fig 1f curve point) (0.015313 uM): 82.4 and 86.6
isoleucine transport, Mouse (Fig 1f curve point) (0.048125 uM): 65.9 and 67.7
isoleucine transport, Mouse (Fig 1f curve point) (0.144375 uM): 32.3 and 28.6
isoleucine transport, Mouse (Fig 1f curve point) (0.4375 uM): 14.6 and 12.2
isoleucine transport, Mouse (Fig 1f curve point) (1.3125 uM): -0.346 and -1.17
isoleucine transport, Mouse (Fig 1f curve point) (3.9375 uM): -4.28 and -6.91
isoleucine transport, Mouse (Fig 1f curve point) (11.8125 uM): -7.48 and -5.64
IC50 (geometric mean n = 6): 97 nM

NC(=O)N1CCC[C@@H](N(C(=O)NCc2ccc(OC(F)(F)F)cc2F)C2CC2)C1 [JNT-517]
isoleucine transport, Mouse (Fig 1c curve point) (0.000722 uM): 87.6 and 103
isoleucine transport, Mouse (Fig 1c curve point) (0.00219 uM): 108 and 105
isoleucine transport, Mouse (Fig 1c curve point) (0.00438 uM): 100 and 89.5
isoleucine transport, Mouse (Fig 1c curve point) (0.0153125 uM): 85.6 and 104
isoleucine transport, Mouse (Fig 1c curve point) (0.048125 uM): 88.3 and 96.6
isoleucine transport, Mouse (Fig 1c curve point) (0.144375 uM): 78.2 and 95.8
isoleucine transport, Mouse (Fig 1c curve point) (0.4375 uM): 86.6 and 108
isoleucine transport, Mouse (Fig 1c curve point) (1.3125 uM): 93.2 and 97.6
isoleucine transport, Mouse (Fig 1c curve point) (3.9375 uM): 89 and 86.1
isoleucine transport, Mouse (Fig 1c curve point) (11.8125 uM): 86 and 88.2
IC50: > 11800 nM
